Assay results as given in patent US11590102B2, “Anti-methanogenic lovastatin analogs or derivatives and uses thereof” (CEDARS-SINAI MEDICAL CENTER, priority 2015, dated 2023).

What follows are molecules tested on methane production in human stool (assay: Methane production in human stool homogenates of IBS-C patients (head gas analysed by gas chromatography)). Conditions: stool homogenates of methane-producing human IBS-C patients, anaerobic chamber; 0.5, 1, 5 and 10 mg of statin per g of stool; head gas at baseline, 90 minute intervals for 3 hours and overnight (~720 min); FIG. 4.
Format: cell-based
Protocol: Fresh stool samples were provided by two methane-producing human IBS-C patients (breath methane>10 ppm) who had provided an informed consent. Different concentrations of stool from each patient were homogenized in deoxygenated PBS (3 ml PBS/2 g stool) inside an anaerobic incubation chamber. Plead gas was extracted through a stopcock at various timepoints ([…], and following overnight incubation) and methane levels in the head gas at each timepoint were analyzed by gas chromatography using a Quintron SC gas chromatograph (Quintron Instrument Company, Milwaukee, Wis.).
The effects of lovastatin lactone, lovastatin ß-hydroxyacid and lovastatin diol on methane production were evaluated by incubating various concentrations of these molecules (0 mg, 0.5 mg, 1 mg, 5 mg and 10 mg of statin per g of human stool) with human stool homogenates in an anaerobic chamber as described above. Plead gas samples were drawn from each flask for methane analysis at baseline and at 90 minute intervals for 3 hours, followed by a final sample after overnight incubation (˜720 min).
With `CC[C@H](C)C(=O)O[C@H]1C[C@@H](C)C=C2C=C[C@H](C)[C@H](CC[C@@H]3C[C@@H](O)CC(=O)O3)[C@H]21` [Lovastatin lactone, lovastatin lactone] the “inhibition of methane production in human stool” value (shortened to “inhibition of methane production”) was “effective inhibitors of methane production”. With `CC[C@H](C)C(=O)O[C@H]1C[C@@H](C)C=C2C=C[C@H](C)[C@H](CC[C@@H](O)C[C@@H](O)CC(=O)O)[C@H]21` [lovastatin R-hydroxyacid, lovastatin ß-hydroxyacid] the “inhibition of methane production” value was “ineffective as an inhibitor of methane production”. In the case of `C[C@H]1C=C2C=C[C@H](C)[C@H](CCC3C[C@@H](O)CC(=O)O3)[C@H]2[C@@H](O)C1` (stereo partly drawn) [lovastatin diol lactone], the “inhibition of methane production” value is reported as “effective inhibitors of methane production”.
